The source of these data is ChEMBL document CHEMBL1201862, “PubChem BioAssay data set” (2004).

The structures appear in SMILES notation. Calls of active or inactive are those of the source.

A short description of assay [1]: cells.
Assay [2] is described as follows: inhibitors of HIV Env-driven cell fusion, dose response, cherry-pick (AID 652057). It is filed as functional, cell-based.
Assay [3] is described as follows: inhibitors of clade B AD8 Env fusion, dose response, cell-based, cherry-pick (AID 652062).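 Further: luciferase signal from cell-cell fusion driven by HIV-1 clade B AD8 Env; potency is for inhibitors of fusion seen as a drop in luminescence.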 Type of assay: functional.
A short description of assay [4]: cytotoxicity in HEK-293T NF-kB-Luc cells, dose response, cytotoxicity control for B/T-cell NF-kB inhibitor project, cell-based, uHTS hits (AID 489019).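 Further: IC50 reflects cytotoxicity as loss of cell viability.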 It is filed as functional.
A further assay deals with INS1. Kind of assay: beta cell apoptosis inhibitors, cytokine rescue, dose response, luminescence, retest (AID 449756).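 Further: cell death triggered by IL-1 beta plus TNF-alpha plus IFN-gamma mixture; protective hits raise ATP signal compared with cytokine alone wells.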 Type of assay: functional, cell-based. To be noted: Rattus norvegicus.
The nature of assay [5]: ZM109 Env clade C HIV-1 fusion inhibitors, dose response, HeLa effector, CEM target cells, luciferase, cherry-pick (AID 652058). Type of assay: functional, cell-based.
In the next assay the test system is Jurkat. Kind of assay: antigen receptor-induced NF-kB inhibitors, dose response, Jurkat, luciferase reporter, luminescence, B- and T-cell (AID 489004).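 Further: NF-kB luciferase reporter Jurkat cells stimulated with PMA plus ionomycin.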 It is filed as functional, cell-based. To be noted: Homo sapiens. For orientation: In a reporter assay the amount or activity of a reporter protein is the signal.
Assay [6] has as its target COUP transcription factor 2 (Homo sapiens, UniProt P24468). The assay is described as follows: Luminescence-based cell-based high throughput dose response assay to identify inhibitors of COUP-TFII (NR2F2). It is filed as functional.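 Further: HEK293 cells transiently cotransfected with COUP-TFII expression vector and reporter; luciferase reporter luminescence driven by COUP-TFII from the pX2-168 reporter plasmid.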
The target in another assay is Galanin receptor type 3 (Homo sapiens, UniProt O60755). The assay is described as follows: Fluorescence-based cell-based primary high throughput dose response assay to identify antagonists of the Galanin Receptor 3 (GalR3). Type of assay: functional.
Chain of Galanin receptor type 3 (O60755 whole entry): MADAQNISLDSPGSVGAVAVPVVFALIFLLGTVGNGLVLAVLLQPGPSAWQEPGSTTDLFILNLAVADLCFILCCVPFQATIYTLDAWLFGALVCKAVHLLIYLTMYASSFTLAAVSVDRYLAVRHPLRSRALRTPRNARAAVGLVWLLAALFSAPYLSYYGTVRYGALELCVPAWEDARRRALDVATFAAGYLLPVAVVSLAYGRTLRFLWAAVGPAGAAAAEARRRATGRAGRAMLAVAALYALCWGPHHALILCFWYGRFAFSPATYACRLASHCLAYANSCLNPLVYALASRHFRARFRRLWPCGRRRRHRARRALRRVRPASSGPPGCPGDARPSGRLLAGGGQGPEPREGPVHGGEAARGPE
In a further assay the target is Cytochrome P450 3A4 (Homo sapiens, UniProt P08684).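 Further: CYP3A4 tested as one member of a cytochrome P450 panel screen.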
Chain of Cytochrome P450 3A4 (P08684 whole entry): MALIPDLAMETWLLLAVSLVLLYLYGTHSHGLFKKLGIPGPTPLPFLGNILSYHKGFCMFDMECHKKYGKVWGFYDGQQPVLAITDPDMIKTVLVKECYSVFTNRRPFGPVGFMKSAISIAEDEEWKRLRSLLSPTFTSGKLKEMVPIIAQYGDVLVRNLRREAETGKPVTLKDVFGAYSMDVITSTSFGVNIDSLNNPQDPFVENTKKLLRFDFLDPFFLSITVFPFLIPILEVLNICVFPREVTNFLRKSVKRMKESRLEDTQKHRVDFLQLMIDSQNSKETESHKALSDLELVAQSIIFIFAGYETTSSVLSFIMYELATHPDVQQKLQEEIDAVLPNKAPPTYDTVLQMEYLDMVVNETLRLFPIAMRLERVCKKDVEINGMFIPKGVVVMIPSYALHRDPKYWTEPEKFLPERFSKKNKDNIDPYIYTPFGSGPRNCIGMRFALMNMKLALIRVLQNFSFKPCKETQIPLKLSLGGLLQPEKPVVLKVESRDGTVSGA
The next assay deals with Cytochrome P450 2C19 (Homo sapiens, UniProt P33261). The assay is described as follows: Cytochrome panel assay with activity outcomes. Panel member name: p450-cyp2c19 Compounds with AC50 equal or less than 10 uM are considered active. It is filed as functional. To be noted: read-out: AC50.
Chain of Cytochrome P450 2C19 (P33261 whole entry): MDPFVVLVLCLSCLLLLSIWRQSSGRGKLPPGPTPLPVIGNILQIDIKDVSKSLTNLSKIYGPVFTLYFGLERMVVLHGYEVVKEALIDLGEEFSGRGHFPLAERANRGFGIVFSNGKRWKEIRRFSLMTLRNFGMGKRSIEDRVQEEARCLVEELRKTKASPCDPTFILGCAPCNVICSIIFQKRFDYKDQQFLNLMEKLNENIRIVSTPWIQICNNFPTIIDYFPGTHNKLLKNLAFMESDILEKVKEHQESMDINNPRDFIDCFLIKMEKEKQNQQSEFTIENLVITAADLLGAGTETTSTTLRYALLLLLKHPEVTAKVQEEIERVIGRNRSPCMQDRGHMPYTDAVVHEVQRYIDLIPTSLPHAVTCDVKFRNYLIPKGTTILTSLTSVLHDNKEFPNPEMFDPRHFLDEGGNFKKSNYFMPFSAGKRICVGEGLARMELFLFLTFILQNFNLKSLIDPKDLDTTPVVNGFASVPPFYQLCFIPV
Assay [7] can be described thus: cells. Type of assay: functional, cell-based. To be noted: HEK-CNG.
In assay [8] the target is Endoplasmic reticulum aminopeptidase 1 (Homo sapiens, UniProt Q9NZ08). Kind of assay: ERAP1 aminopeptidase inhibitors, dose response, biochemical, cherry-pick, set 2, plate reader (AID 743314).
Chain of Endoplasmic reticulum aminopeptidase 1 (Q9NZ08 whole entry): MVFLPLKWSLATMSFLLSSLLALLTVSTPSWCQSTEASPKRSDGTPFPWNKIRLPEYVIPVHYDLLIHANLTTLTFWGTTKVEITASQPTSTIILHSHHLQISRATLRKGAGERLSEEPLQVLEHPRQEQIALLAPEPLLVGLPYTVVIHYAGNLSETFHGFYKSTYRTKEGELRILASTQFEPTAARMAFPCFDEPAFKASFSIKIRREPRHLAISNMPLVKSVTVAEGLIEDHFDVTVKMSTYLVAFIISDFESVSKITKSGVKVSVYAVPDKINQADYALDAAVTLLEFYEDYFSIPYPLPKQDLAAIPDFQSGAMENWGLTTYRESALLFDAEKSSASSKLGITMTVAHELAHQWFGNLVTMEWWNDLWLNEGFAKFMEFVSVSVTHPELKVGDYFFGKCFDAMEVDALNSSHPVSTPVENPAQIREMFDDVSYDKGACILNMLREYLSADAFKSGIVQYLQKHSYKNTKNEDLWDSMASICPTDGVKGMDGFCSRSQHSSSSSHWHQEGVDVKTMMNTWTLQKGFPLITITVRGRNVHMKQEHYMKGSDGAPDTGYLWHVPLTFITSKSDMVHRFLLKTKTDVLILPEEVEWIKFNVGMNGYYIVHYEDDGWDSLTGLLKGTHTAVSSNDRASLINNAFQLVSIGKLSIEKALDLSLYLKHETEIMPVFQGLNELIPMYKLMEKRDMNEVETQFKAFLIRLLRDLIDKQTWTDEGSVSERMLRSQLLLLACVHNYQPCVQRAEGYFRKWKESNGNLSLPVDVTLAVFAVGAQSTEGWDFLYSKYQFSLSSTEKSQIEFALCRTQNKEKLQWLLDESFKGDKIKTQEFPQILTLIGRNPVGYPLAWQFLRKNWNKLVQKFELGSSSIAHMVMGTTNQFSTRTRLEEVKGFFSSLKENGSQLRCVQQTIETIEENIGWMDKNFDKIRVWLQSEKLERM
Assay [9] can be described thus: HepG2 cell cytotoxicity, dose response, cytotoxicity control, ATP luminescence, cherry-pick, activator set 2 (AID 1053143). It is filed as functional, cell-based.
In assay [10] the target is T1, Oxysterols receptor LXR-beta (Homo sapiens, UniProt P55055). Type of assay: functional, cell-based.
T1 sequence (P55055 whole entry): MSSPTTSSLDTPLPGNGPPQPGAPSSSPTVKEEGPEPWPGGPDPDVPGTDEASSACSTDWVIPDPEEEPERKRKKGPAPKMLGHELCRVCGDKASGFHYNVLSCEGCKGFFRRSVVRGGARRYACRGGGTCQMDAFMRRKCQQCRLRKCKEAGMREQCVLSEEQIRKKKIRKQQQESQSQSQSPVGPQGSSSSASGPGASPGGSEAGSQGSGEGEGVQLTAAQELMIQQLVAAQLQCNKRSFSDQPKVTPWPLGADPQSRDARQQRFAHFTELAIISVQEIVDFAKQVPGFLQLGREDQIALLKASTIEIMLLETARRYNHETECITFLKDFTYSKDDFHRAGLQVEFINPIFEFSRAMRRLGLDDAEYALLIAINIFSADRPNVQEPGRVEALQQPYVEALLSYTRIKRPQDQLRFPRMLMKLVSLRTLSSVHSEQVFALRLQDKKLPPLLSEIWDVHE
Assay [11] is described as follows: cells. This is another data set of the same source.
The target of assay [12] is NAD-dependent protein deacylase sirtuin-5, mitochondrial (Homo sapiens, UniProt Q9NXA8). Kind of assay: SIRT5 desuccinylase inhibitors, dose response, biochemical, fluorescence imaging, cherry-pick, set 5 (AID 720591).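 Further: desuccinylation of succinyl peptide AMC substrate read as fluorescence after trypsin release; potency of inhibitors that lower fluorescence and may act on trypsin instead.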
Chain of NAD-dependent protein deacylase sirtuin-5, mitochondrial (Q9NXA8 whole entry): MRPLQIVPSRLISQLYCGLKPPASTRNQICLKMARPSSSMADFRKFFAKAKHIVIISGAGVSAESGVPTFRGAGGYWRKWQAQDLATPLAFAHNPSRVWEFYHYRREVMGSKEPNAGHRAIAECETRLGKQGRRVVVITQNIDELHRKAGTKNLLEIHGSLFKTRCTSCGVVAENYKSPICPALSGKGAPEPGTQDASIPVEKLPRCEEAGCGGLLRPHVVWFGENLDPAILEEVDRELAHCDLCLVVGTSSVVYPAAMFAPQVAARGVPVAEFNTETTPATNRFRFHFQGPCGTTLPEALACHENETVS
Assay [13] in a line: CFTR ΔF508 corrector activity in bronchial cells, dose response, human bronchial epithelial cells, plate reader, cherry-pick, two tests (AID 743267). Type of assay: functional, cell-based.
Assay [14] has as its target T2, Trace amine-associated receptor 1 (Homo sapiens, UniProt Q96RJ0).
T2 sequence (Q96RJ0 whole entry): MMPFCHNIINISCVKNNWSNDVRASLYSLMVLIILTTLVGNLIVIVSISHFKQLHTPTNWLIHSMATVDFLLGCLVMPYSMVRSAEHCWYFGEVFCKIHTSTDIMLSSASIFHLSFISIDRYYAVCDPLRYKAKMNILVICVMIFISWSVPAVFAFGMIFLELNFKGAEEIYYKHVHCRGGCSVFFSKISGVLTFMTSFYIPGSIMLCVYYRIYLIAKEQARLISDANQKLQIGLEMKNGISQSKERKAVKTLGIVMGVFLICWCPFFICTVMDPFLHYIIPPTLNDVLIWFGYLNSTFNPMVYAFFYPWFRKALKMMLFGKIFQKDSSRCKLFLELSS
Kind of assay: Fluorescence-based cell-based high throughput dose response assay to identify antagonists of the human trace amine associated receptor 1 (TAAR1). It is filed as functional.

The nature of assay [15]: Counterscreen for antagonists of the human trace amine associated receptor 1 (hTAAR1): Fluorescence-based cell-based high throughput dose response assay to identify nonselective Ga16 antagonists. It is filed as functional. (In general: Counterscreens check selectivity or assay interference.)
Assay [16] has as its target T2, Trace amine-associated receptor 1. Kind of assay: Counterscreen for antagonists of the human trace amine associated receptor 1 (hTAAR1): Fluorescence-based cell-based high throughput dose response assay to identify TAAR1 Agonists. Type of assay: functional.
Assay [17] is described as follows: Counterscreen for […] of the human trace amine associated receptor 1 (TAAR1): Fluorescence-based cell-based high throughput dose response assay to identify nonselective Ga16 agonists. It is filed as functional.
Assay [18] concerns the target T1, Oxysterols receptor LXR-beta. It is filed as functional, cell-based. The source holds these as a separate data set.

Chain of COUP transcription factor 2 (P24468 whole entry): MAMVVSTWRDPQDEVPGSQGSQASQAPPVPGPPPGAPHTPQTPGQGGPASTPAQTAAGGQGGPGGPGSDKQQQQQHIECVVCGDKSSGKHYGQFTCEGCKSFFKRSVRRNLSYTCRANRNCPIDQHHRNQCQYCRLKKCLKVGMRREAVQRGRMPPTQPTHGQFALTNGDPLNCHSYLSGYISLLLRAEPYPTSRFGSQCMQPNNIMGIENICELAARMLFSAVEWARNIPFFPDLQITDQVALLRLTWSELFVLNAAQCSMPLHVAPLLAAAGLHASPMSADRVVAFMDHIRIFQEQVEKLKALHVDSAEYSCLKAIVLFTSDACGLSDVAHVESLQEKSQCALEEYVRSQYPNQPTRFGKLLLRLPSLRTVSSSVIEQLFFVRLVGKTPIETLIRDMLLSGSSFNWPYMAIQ

The AC50 is the midpoint of the concentration-response curve, whichever way the signal moves. On to `Cc1cccn2c(=O)c(/C=C(\C#N)C(N)=O)c(Oc3ccccc3)nc12`, for which the AC50 in the assay “cells [1]” is 8.22 µM (active).
Broadly, the IC50 is the point on the concentration scale where inhibition reaches its midpoint. The EC50 is the concentration at which the effect is half-maximal. Turning to `Cc1cc(N2CCN(c3nc4ccccc4s3)CC2)n2ncnc2n1`, the AC50 was 4.63 µM (active) in assay [2]; 5.3 µM (active) in assay [3]; 5.06 µM (active) with INS1; 6.41 µM (active) in [5]; 39.8 µM (inconclusive) at Cytochrome P450 3A4; 14.1 µM (inconclusive) at Cytochrome P450 2C19. Further, the IC50 is > 80 µM (inactive) in assay [4], > 80 µM (inactive) in the assay on Jurkat, 6.41 µM (active) in assay [6] and 1.43 µM (active) on Galanin receptor type 3. Further, in the assay “cells [7]”, the EC50 is > 29.9 µM (inactive).
Regarding `CN1c2ccc(-c3ccc(C#N)cc3)cc2[C@@H]2[C@@H](CCN2C(=O)CC2CC2)[C@@H]1CO`, in assay [8], the AC50 is 19.8 µM (active).
With `CC(=O)Nc1cc2nn(-c3ccccc3)nc2cc1Cl`, the half-maximal activity concentration (AC50) in assay [9] was 4.99 µM (active).
Turning to `C/C(=N\Nc1ccccc1[N+](=O)[O-])c1ccccc1O`, the EC50 (in assay [10]; in “cells [11]”) was > 67.6 µM (inactive) in each case.
Take `COc1ccc(-c2csc3ncnc(O)c23)cc1`: in assay [12], the AC50 was 15.6 µM (active).
Take `COc1cccc(S(=O)(=O)N2C[C@@H]3N[C@H](C2)[C@@H]3c2ccc(-c3cccc(C)c3)cc2)c1`: the AC50 in assay [13] was 16 µM (active).
In the case of `O=[N+]([O-])c1ccc(-c2c(-c3ccccc3)ncc3cc(F)ccc23)cc1`, the IC50 is 4.77 µM (active) in assay [14] and > 29.9 µM (inactive) in assay [15]. Also, the EC50 in [16] and in [17] was > 29.9 µM (inactive) in each case.
For the molecule `Cc1ccc(SCCN2CCC(C)CCC2=O)cc1` (stereo not drawn), the EC50 in assay [18] was > 67.5 µM (inactive).
